{"source": "ChEMBL document CHEMBL5050860", "about": "“Substrate selective hsd17b13 inhibitors and uses thereof” (2021)", "key": {"Homo sapiens": {"species": "Homo sapiens", "assay": "Ratio of Ki for inhibition of His-tagged HSD17B13 (unknown origin) using LTB3 as substrate to Ki for His-tagged HSD17B13 (unknown origin) using estradiol as substrate"}, "[1]": {"assay": "Inhibition of His-tagged HSD17B13 (unknown origin) using estradiol as substrate incubated for 2 hrs and measured by LC-MS/MS analysis", "set-up": "species or system Homo sapiens"}, "[2]": {"assay": "Inhibition of His-tagged HSD17B13 (unknown origin) using LTB3 as substrate incubated for 1 hr and measured after 1 hr by fluorescence based assay", "set-up": "species or system Homo sapiens"}}}
{"smiles": "Oc1cccc(-c2nccc3cc(O)ccc23)c1", "values": [{"measurement": "Ratio Ki", "setting": "Homo sapiens", "result": "> 3.5"}, {"measurement": "Ki", "setting": "[1]", "result": 8550, "unit": "nM"}, {"measurement": "Ki", "setting": "[2]", "result": "> 30000", "unit": "nM"}]}
{"smiles": "CCOC(=O)c1cccc(-n2c(-c3ccncc3)nc3cc(OC)ccc32)c1", "values": [{"measurement": "Ratio Ki", "setting": "Homo sapiens", "result": "< 0.091"}, {"measurement": "Ki", "setting": "[1]", "result": "> 30000", "unit": "nM"}, {"measurement": "Ki", "setting": "[2]", "result": 2720, "unit": "nM"}]}
{"smiles": "O=C1c2ccc(O)cc2C(=O)c2ccc(O)cc21", "note": "[ANTHRAFLAVICACID]", "values": [{"measurement": "Ratio Ki", "setting": "Homo sapiens", "result": 8.8}, {"measurement": "Ki", "setting": "[1]", "result": 320, "unit": "nM"}, {"measurement": "Ki", "setting": "[2]", "result": 2810, "unit": "nM"}]}
{"smiles": "Cc1cc(-c2ccc(-c3cccc(O)c3)s2)ccc1O", "values": [{"measurement": "Ratio Ki", "setting": "Homo sapiens", "result": 0.14}, {"measurement": "Ki", "setting": "[1]", "result": 7580, "unit": "nM"}, {"measurement": "Ki", "setting": "[2]", "result": 1070, "unit": "nM"}]}
